In US20230277698A1, “SILICON-CONTAINING LIGAND COMPOUNDS” (Technische Universität München, priority 2020, published 2023):

What was measured:
[1] = molecular target: human serum albumin (HSA) (Homo sapiens, UniProt P02768); assay: HSA binding by high performance affinity chromatography (HiPAC); format: in vitro ADME; set-up: purchased Daicel, Tokyo, Japan H13H-2433; conditions: lutetium-complexed; Chiralpak HSA column
Experimental: HSA binding of the PSMA-addressing ligands was determined according to a previously published procedure via HPLC (Valko, K.; Nunhuck, S.; Bevan, C.; Abraham, M. H.; Reynolds, D. P., Fast gradient HPLC method to determine compounds binding to human serum albumin. Relationships with octanol/water and immobilized artificial membrane lipophilicity. J Pharm Sci. 2003, 92, 2236-2248). A Chiralpak HSA column (50×3 mm, 5 μm, H13H-2433, Daicel, Tokyo, Japan) was used at a constant flow rate of 0.5 mL/min at rt. Mobile phase A was a freshly prepared 50 mM aqueous solution of NH4OAc (pH 6.9) and mobile phase B was isopropanol (HPLC grade, VWR). The applied gradient for all experiments was 100% A (0 to 3 min), followed by 80% A (3 to 40 min). Prior to the experiment, the column was calibrated using nine reference substances with a HSA binding, known from literature, in the range of 13 to 99% (Valko, K.; Nunhuck, S.; Bevan, C.; Abraham, M. H.; Reynolds, D. P., J Pharm Sci. 2003, 92, 2236-2248; Yamazaki, K.; Kanaoka, M., Computational prediction of the plasma protein-binding percent of diverse pharmaceutical compounds. J Pharm Sci. 2004, 93, 1480-1494). All substances, including the examined PSMA ligands, were dissolved in a 1:1 mixture (v/v) of isopropanol and a 50 mM aqueous solution of NH4OAc (pH 6.9) with a final concentration of 0.5 mg/mL. Non-linear regression was established with the OriginPro 2016G software (Northampton, United States).
FIG. 1 is an exemplary sigmoidal plot, showing the correlation between human serum albumin (HSA) binding of selected reference substances and retention time (tR). The underlying values of HSA binding also shown in the corresponding table and were obtained from literature (Valko, K.; Nunhuck, S.; Bevan, C.; Abraham, M. H.; Reynolds, D. P., J Pharm Sci. 2003, 92, 2236-2248; Yamazaki, K.; Kanaoka, M., J Pharm Sci. 2004, 93, 1480-1494). Log tR: logarithmic value of experimentally determined retention time. Log K HSA: logarithmic value of HSA binding values.

LNCaP cells = assay: Internalization studies on LNCaP cells; format: cell-based; conditions: 177Lu-labelled, c=1.0 nM, 1 hour, 37 °C; % of reference ligand ([125I]I-BA)KuE (c=0.2 nM); corrected for non-specific binding (PMPA); mean±SD, n=3-6
Experimental: PSMA-positive LNCAP cells (300265; Cell Lines Service, Eppelheim, Germany) were cultivated in Dulbecco modified Eagle medium/Nutrition Mixture F-12 with Glutamax (1:1) (DMEM-F12, Biochrom, Berlin, Germany) supplemented with fetal bovine serum (10%, FBS Zellkultur, Berlin, Germany) and kept at 37° C. in a humidified CO2 atmosphere (5%). A mixture of trypsin and EDTA (0.05%, 0.02%) in PBS (Biochrom) was used in order to harvest cells. Cells were counted with a Neubauer hemocytometer (Paul Marienfeld, Lauda-Königshofen, Germany).
For internalization studies, LNCaP cells were harvested 24±2 hours before the experiment and seeded in poly-L-lysine coated 24-well plates (1.25×10^5 cells in 1 mL/well, Greiner Bio-One, Kremsmünster, Austria). After removal of the culture medium, the cells were washed once with 500 μL DMEM-F12 (5% BSA) and left to equilibrate for at least 15 min at 37° C. in 200 μL DMEM-F12 (5% BSA). Each well was treated with either 25 μL of either DMEM-F12 (5% BSA, control) or 25 μL of a 100 μM PMPA (2-(Phosphonomethyl)-pentandioic acid, Tocris Bioscience, Bristol, UK) solution in PBS, for blockade. Next, 25 μL of the radioactive-labelled PSMA inhibitor (10.0 nM in PBS) was added and the cells were incubated at 37° C. for 60 min. The experiment was terminated by placing the 24-well plate on ice for 3 min and consecutive removal of the medium. Each well was carefully washed with 250 μL of ice-cold HBSS. Both fractions from the first steps, representing the amount of free radioligand, were combined. Removal of surface bound activity was accomplished by incubation of the cells with 250 μL of ice-cold PMPA (10 μM in PBS) solution for 5 min and rinsed again with another 250 μL of ice-cold PBS. The internalized activity was determined by incubation of the cells in 250 μL 1 M aqueous NaOH for at least 10 min. The obtained fractions were combined with those of the subsequent wash step with 250 μL 1 M aqueous NaOH. Each experiment (control and blockade) was performed in triplicate. Free, surface bound and internalized activity was quantified in a γ-counter. All internalization studies were accompanied by external reference studies, using ([^125I]l-BA)KuE (c=0.2 nM), which were performed analogously. Data were corrected for non-specific binding and normalized to the specific-internalization observed for the radioiodinated reference compound.
Data is corrected for non-specific binding (10 μmol PMPA) and expressed as mean±SD (n=3-6): […]

[2] = system: LNCaP tumor-bearing CB17-SCID mice; assay: Biodistribution studies 24 h p.i.; format: in vivo; conditions: 177Lu-labelled, mean±SD, n=4-5; for biodistribution: tumor: LNCaP xenograft; for biodistribution: blood: i.v. tail vein
Experimental: All animal experiments were conducted in accordance with general animal welfare regulations in Germany (German animal protection act, as amended on 18 May 2018, Art. 141 G v. 29.3.2017|626, approval no. 55.2-1-54-2532-71-13) and the institutional guidelines for the care and use of animals. To establish tumor xenografts, LNCaP cells (approx. 10^7 cells) were suspended in 200 μL of a 1:1 mixture (v/v) of DMEM F-12 and Matrigel (BD Biosciences, Germany), and inoculated subcutaneously onto the right shoulder of 6-8 weeks old CB17-SCID mice (Charles River, Sulzfeld, Germany). Mice were used for experiments when tumors had grown to a diameter of 5-10 mm (3-6 weeks after inoculation).
Approximately 5-10 MBq (0.1-0.2 nmol) of the radioactive-labelled PSMA inhibitors were injected into the tail vein of LNCaP tumor-bearing male CB-17 SCID mice and sacrificed after 24 h post injection. Selected organs were removed, weighted and measured in a γ-counter.
FIG. 10 and the following table show the biodistribution data 24 h p.i. of ^177Lu-labeled compounds in LNCaP tumor-bearing CB17-SCID mice. Data are expressed as mean±SD (n=4-5).

human serum albumin (HSA), sequence (P02768 25-609): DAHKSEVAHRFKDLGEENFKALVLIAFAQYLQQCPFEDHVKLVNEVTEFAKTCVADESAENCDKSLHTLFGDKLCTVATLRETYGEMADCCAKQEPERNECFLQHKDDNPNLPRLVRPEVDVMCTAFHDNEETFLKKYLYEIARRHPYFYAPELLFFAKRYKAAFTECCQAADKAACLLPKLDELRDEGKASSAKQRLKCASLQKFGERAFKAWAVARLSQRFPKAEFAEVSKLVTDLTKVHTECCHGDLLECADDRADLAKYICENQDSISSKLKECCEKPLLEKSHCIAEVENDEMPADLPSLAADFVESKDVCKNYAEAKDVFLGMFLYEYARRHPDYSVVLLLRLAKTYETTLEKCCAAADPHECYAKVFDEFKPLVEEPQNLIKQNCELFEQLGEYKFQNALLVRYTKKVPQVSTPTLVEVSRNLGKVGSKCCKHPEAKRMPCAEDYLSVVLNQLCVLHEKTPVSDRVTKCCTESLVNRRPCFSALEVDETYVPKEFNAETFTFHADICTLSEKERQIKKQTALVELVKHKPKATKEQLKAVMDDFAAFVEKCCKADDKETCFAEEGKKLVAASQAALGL

Compound	HSA-binding HiPAC [1] [%]	Internalization (% IBA) (LNCaP cells)	biodistribution: tumor [2] [% ID/g]	biodistribution: blood [2] [% ID/g]	biodistribution: adrenals [2] [% ID/g]	biodistribution: bone [2] [% ID/g]	biodistribution: heart [2] [% ID/g]	biodistribution: intestine [2] [% ID/g]	biodistribution: kidneys [2] [% ID/g]	biodistribution: liver [2] [% ID/g]	biodistribution: lung [2] [% ID/g]	biodistribution: muscle [2] [% ID/g]	biodistribution: pancreas [2] [% ID/g]	biodistribution: spleen [2] [% ID/g]	biodistribution: stomach [2] [% ID/g]	biodistribution: parotis [2] [% ID/g]	biodistribution: submandibularis [2] [% ID/g]
O=C(O)CC[C@H](NC(=O)N[C@@H](CCCCNC(=O)[C@H](Cc1ccc2ccccc2c1)NC(=O)[C@H]1CC[C@H](CNC(=O)CN2CCN(CC(=O)O)CCN(CC(=O)O)CCN(CC(=O)O)CC2)CC1)C(=O)O)C(=O)O [PSMA-617, reference compound]	74.7	160 ± 2	7.5 ± 0.9	0.006 ± 0.01	0.13 ± 0.12	0.03 ± 0.01	0.01 ± 0.01	0.12 ± 0.08	1.4 ± 0.4	0.12 ± 0.06	0.04 ± 0.01	0.01 ± 0.01	0.01 ± 0.01	0.08 ± 0.01	0.02 ± 0.01		
CC(C)(C)[Si](F)(c1ccc(C(=O)NC[C@@H](NC(=O)CC[C@@H](C(=O)O)N2CCN(CC(=O)O)CCN(CC(=O)O)CCN(CC(=O)O)CC2)C(=O)N[C@H](CCCCNC(=O)CCC(=O)NCCC[C@@H](NC(=O)CC[C@H](NC(=O)N[C@@H](CCC(=O)O)C(=O)O)C(=O)O)C(=O)O)C(=O)O)cc1)C(C)(C)C [rhPSMA-7.3, reference compound]	98.5	162 ± 14	7.6 ± 0.5	0.004 ± 0.002		0.02 ± 0.01	0.03 ± 0.01	0.12 ± 0.03	13.2 ± 6.7	0.22 ± 0.03	0.06 ± 0.02	0.012 ± 0.004	0.02 ± 0.01	0.51 ± 0.22	0.05 ± 0.01	0.22 ± 0.16	0.05 ± 0.02
CC(C)(C)[Si](F)(c1ccc(C(=O)NC[C@@H](NC(=O)CN2CCN(CC(=O)O)CCN(CC(=O)O)CCN(CC(=O)O)CC2)C(=O)N[C@H](CCCCNC(=O)CCC(=O)NCCC[C@@H](NC(=O)CC[C@H](NC(=O)N[C@@H](CCC(=O)O)C(=O)O)C(=O)O)C(=O)O)C(=O)O)cc1)C(C)(C)C [rhPSMA-10, reference compound]	94.0	231 ± 57	10.2 ± 2.8	0.004 ± 0.001	0.09 ± 0.06	0.02 ± 0.01	0.03 ± 0.01	0.11 ± 0.06	4.1 ± 2.3	0.28 ± 0.13	0.05 ± 0.01	0.010 ± 0.003	0.02 ± 0.01	0.22 ± 0.11	0.04 ± 0.01		
